In BindingDB's records for doi:10.1111/cbdd.12280 (Universiti Kebangsaan Malaysia, Jalan Raja Muda Abdul Aziz, …, 2014):

Biological target: T1, Prostaglandin E synthase (Homo sapiens, UniProt O14684)
T1 sequence (O14684 whole entry): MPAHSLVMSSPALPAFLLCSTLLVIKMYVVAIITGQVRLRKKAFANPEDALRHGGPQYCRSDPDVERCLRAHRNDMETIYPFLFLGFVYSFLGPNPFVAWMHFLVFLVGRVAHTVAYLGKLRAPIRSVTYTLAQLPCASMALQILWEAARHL
Assay: Microsomal prostaglandin E synthase-1 activity assay
Details: pH 7; 20 °C
Protocol: The assay buffer contained 100 mM KHPO4 (pH 7.0), 2 mM EDTA and 2.5 mM reduced GSH. 100 µL of reaction buffer containing human recombinant mPGES-1 was added to 96-well non-binding plate, followed by the addition of test samples to their respective wells. The reaction mixture was incubated for 30 min at 20 °C. […] The reaction was quenched by adding 20 µL of SnCl2 solution in 1 N HCl.

Structure (SMILES)	IC50 [µM]
CC(C=CC(=O)C=CC(C)c1ccccc1)c1ccccc1 (stereo unspecified) [(3E,6E)‐2,8‐diphenylnona‐3,6‐dien‐5‐one (10)]	60.7
CC(C)(C)c1ccc(/C=C2\CC/C(=C\c3ccc(C(C)(C)C)cc3)C2=O)cc1 [(2E,5E)‐2,5‐bis[(4‐tert‐butyl‐2‐ methylphenyl)methylidene]cyclopentan‐1‐one (14)]	24.5
CC(C)(C)c1ccc(/C=C/C(=O)/C=C/c2ccc(C(C)(C)C)cc2)cc1	37
CC(C=C1CCCC(=CC(C)c2ccccc2)C1=O)c1ccccc1 (stereo unspecified) [(2E,6E)‐2,6‐bis(2‐phenylpropylidene)cyclohexan‐1‐ one (4)]	20.3

Next, values leading:

IC50 [µM]	Structure (SMILES)
8.95	CC(C)(C)c1ccc(/C=C2\CCC/C(=C\c3ccc(C(C)(C)C)cc3)C2=O)cc1 [(2E,6E)‐2,6‐bis[(4‐tert‐ butylphenyl)methylidene]cyclohexan‐1‐one (2)]
2.41	CCN(CC)c1ccc(/C=C2\CCC/C(=C\c3ccc(N(CC)CC)cc3)C2=O)cc1 [2,6-Bis(4-diethyl-aminobenzylidene)cyclohexanone (5)]
7.48	CC(C=C1CCC(=CC(C)c2ccccc2)C1=O)c1ccccc1 (stereo unspecified) [(2E,5E)‐2,5‐bis(2‐phenylpropylidene)cyclopentan‐1‐ one (16)]

Biological target: T2, Prostaglandin G/H synthase 1 (Ovis aries, UniProt P05979)
T2 sequence (P05979 whole entry): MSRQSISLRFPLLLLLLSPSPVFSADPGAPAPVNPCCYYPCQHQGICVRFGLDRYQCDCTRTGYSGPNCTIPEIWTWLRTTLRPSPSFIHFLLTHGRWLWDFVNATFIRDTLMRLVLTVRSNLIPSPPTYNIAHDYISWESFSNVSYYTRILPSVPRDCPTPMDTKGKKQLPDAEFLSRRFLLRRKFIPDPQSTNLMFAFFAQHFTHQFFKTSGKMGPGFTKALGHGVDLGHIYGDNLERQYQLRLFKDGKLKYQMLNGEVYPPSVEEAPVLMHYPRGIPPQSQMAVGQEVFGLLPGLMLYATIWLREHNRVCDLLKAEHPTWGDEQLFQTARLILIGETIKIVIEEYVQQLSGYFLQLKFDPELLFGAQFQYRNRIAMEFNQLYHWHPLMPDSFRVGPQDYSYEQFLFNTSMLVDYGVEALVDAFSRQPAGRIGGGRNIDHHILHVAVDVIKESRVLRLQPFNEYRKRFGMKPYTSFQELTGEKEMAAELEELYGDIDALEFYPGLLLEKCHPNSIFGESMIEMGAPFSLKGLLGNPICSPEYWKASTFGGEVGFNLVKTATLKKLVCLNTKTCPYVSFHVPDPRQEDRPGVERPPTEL
Assay: Cyclooxygenase activity assay
Details: pH 8; 37 °C
Protocol: Reaction mixture containing 100 mM Tris-HCl buffer (pH 8) and COX-1 (ovine) or COX-2 (human recombinant) was preincubated for 10 min in a water bath at 37 °C. The reaction was initiated by the addition of 10 µL arachidonic acid (final concentration 100 µM). After 2 min, the reaction was terminated by adding 1 M HCl. Test compounds were dissolved in DMSO and diluted to the desired concentration with potassium phosphate buffer of pH 7.4.

Structure (SMILES)	IC50 [µM]
CC(C=CC(=O)C=CC(C)c1ccccc1)c1ccccc1 (stereo unspecified) [(3E,6E)‐2,8‐diphenylnona‐3,6‐dien‐5‐one (10)]	195
CC(C)(C)c1ccc(/C=C2\CC/C(=C\c3ccc(C(C)(C)C)cc3)C2=O)cc1 [(2E,5E)‐2,5‐bis[(4‐tert‐butyl‐2‐ methylphenyl)methylidene]cyclopentan‐1‐one (14)]	60
CC(C)(C)c1ccc(/C=C/C(=O)/C=C/c2ccc(C(C)(C)C)cc2)cc1	53.2
CC(C=C1CCCC(=CC(C)c2ccccc2)C1=O)c1ccccc1 (stereo unspecified) [(2E,6E)‐2,6‐bis(2‐phenylpropylidene)cyclohexan‐1‐ one (4)]	194

The remaining lines, values ahead:

IC50 [µM]	Structure (SMILES)
43.2	CC(C)(C)c1ccc(/C=C2\CCC/C(=C\c3ccc(C(C)(C)C)cc3)C2=O)cc1 [(2E,6E)‐2,6‐bis[(4‐tert‐ butylphenyl)methylidene]cyclohexan‐1‐one (2)]
38.5	CCN(CC)c1ccc(/C=C2\CCC/C(=C\c3ccc(N(CC)CC)cc3)C2=O)cc1 [2,6-Bis(4-diethyl-aminobenzylidene)cyclohexanone (5)]
320	CC(C=C1CCC(=CC(C)c2ccccc2)C1=O)c1ccccc1 (stereo unspecified) [(2E,5E)‐2,5‐bis(2‐phenylpropylidene)cyclopentan‐1‐ one (16)]

Biological target: T3, Phospholipase A2 group V (Homo sapiens, UniProt P39877)
T3 sequence (P39877 whole entry): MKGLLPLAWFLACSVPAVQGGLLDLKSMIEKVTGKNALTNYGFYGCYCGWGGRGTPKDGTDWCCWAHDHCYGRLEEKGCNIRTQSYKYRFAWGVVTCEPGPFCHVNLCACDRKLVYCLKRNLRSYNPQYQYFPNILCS
Assay: sPLA2-V activity assay
Details: pH 8; 25 °C
Protocol: Substrate 1,2-bis(heptanoylthio)-glycerophosphocholine and human recombinant PLA2-V were resuspended in assay buffer, and DTNB was dissolved in an aqueous solution of Tris-HCl (pH 8).

Structure (SMILES)	IC50 [µM]
C[C@@H]1C[C@H]2[C@@H]3CCC4=CC(=O)C=C[C@]4(C)[C@@]3(F)[C@@H](O)C[C@]2(C)[C@@]1(O)C(=O)CO [dexamethasone (tetramethyl-rhodamine conjugated )]	0.61
CC(C=CC(=O)C=CC(C)c1ccccc1)c1ccccc1 (stereo unspecified) [(3E,6E)‐2,8‐diphenylnona‐3,6‐dien‐5‐one (10)]	125
CC(C)(C)c1ccc(/C=C2\CC/C(=C\c3ccc(C(C)(C)C)cc3)C2=O)cc1 [(2E,5E)‐2,5‐bis[(4‐tert‐butyl‐2‐ methylphenyl)methylidene]cyclopentan‐1‐one (14)]	83.2
CC(C)(C)c1ccc(/C=C/C(=O)/C=C/c2ccc(C(C)(C)C)cc2)cc1	51.9
CC(C=C1CCCC(=CC(C)c2ccccc2)C1=O)c1ccccc1 (stereo unspecified) [(2E,6E)‐2,6‐bis(2‐phenylpropylidene)cyclohexan‐1‐ one (4)]	94.7

The next lines start with the values.

IC50 [µM]	Structure (SMILES)
53.3	CC(C)(C)c1ccc(/C=C2\CCC/C(=C\c3ccc(C(C)(C)C)cc3)C2=O)cc1 [(2E,6E)‐2,6‐bis[(4‐tert‐ butylphenyl)methylidene]cyclohexan‐1‐one (2)]
12.1	CCN(CC)c1ccc(/C=C2\CCC/C(=C\c3ccc(N(CC)CC)cc3)C2=O)cc1 [2,6-Bis(4-diethyl-aminobenzylidene)cyclohexanone (5)]
